System: human fibroblasts (Hs68)
Assay: pRL-SV40 plasmid transfection of synchronized or arrested cells (luciferase activity)
Type: cell-based
Conditions: for luciferase activity in serum-starved, arrested cells in comparison with dividing cells: 24 hrs after transfection; for transfection efficiency after 24 hrs, relative to expression after 48 hrs: synchronized Hs68, pRL-SV40, 24 hrs
Procedure: FIG. 2: The NLS of MPG is essential for nuclear translocation: A/ Purified GST-importin α and β were coupled onto GST Sepharose resin and incubated in batch with MPG/DNA or MPG^ΔNLS/DNA complexes for 1 hr, extensively washed and incubated with […] glutathione to elute the complexes. DNA was then extracted and analyzed by agarose gel electrophoresis (0.8%). […] B/ Delivery of pRL-SV40 plasmid: MPG/DNA (black boxes) or MPG^ΔNLS/DNA (grey boxes) complexes formed at a charge ratio of 5/1 with 100 ng pRL-SV40 plasmid encoding the reporter gene luciferase were overlaid onto synchronized or arrested (-FCS) human fibroblasts (Hs68). Luciferase activity was monitored 12 hrs and 24 hrs after release from synchrony, or after 24 hrs for arrested cells and 48 hrs for asynchronous cells. Control transfections were performed with Lipofectamine™ (white boxes) or naked plasmid (dashed boxes).
Hs68, Cos-7 and HeLa cell lines were cultured in Dulbecco's Modified Eagle's Medium supplemented with 2 mM glutamine, 1% antibiotics (streptomycin 10 000 μg/ml, penicillin, 10,000 IU/ml) and 10% (w/v) fetal calf serum (FCS) at 37° C. in a humidified atmosphere containing 5% CO2 as described previously (18). For MPG or MPG^ΔNLS-mediated gene delivery, peptide carrier/DNA complexes were formed in DMEM or PBS (500 μl of DMEM containing 100 ng of DNA complexed with MPG at a charge ratio 5:1) and incubated for 30 min at 37° C. Cells grown to 60% confluence were then overlaid with these preformed complexes. After 30 min incubation at 37° C., 1 ml of fresh DMEM supplemented with 10% fetal calf serum was added to the cells, without removing the overlay of carrier/DNA, and cells were returned to the incubator.
For cell cycle-dependent studies, Hs68 fibroblasts were synchronized by serum deprivation for 40 hrs, then restimulated to enter the cycle and grow into early G1 for 4 hrs by addition of fresh DMEM supplemented with 20% FCS, and incubated in the presence of MPG/DNA complexes as described above. Luciferase activity was monitored as described previously (19) and control transfection experiments were performed using Lipofectamine™. When transfected at 4° C., cells were incubated for 1 hour at 4° C. prior to transfection, then incubated with MPG/DNA complexes for another 2 hours at 4° C., extensively washed and finally returned to incubation at 37° C. in fresh medium supplemented with serum. When transfections were performed in the presence of bafilomycin A ([…]), cytochalasin B (50 μg/ml) or chloroquine (100 μM), cells were preincubated with these inhibitors of endocytosis for 1 hour prior to transfection.
In order to study the impact of the NLS of MPG on nuclear translocation of plasmids, transfection experiments were performed on synchronized or growth-arrested cells with either MPG or its NLS mutant. Cells were synchronized in G0 by serum starvation then released back into the cell cycle by addition of serum. 4 hours after release, cells were transfected with MPG/DNA or MPG^ΔNLS/DNA complexes and transgene expression was monitored 12 hours later, when most of the cells were in late G1, and […] later, in late G2 prior to mitosis. Data were normalized with luciferase activity obtained 48 hours after transfection, and compared with asynchronous cells. […] After 24 hrs, transfection efficiency reached 70%. In contrast, when transfection was performed with MPG^ΔNLS (SEQ ID NO:3), luciferase activity was negligible after 12 hrs (7%), and only reached 26% after 24 hrs. […]

Sequence	luciferase activity in serum-starved, arrested cells in comparison with dividing cells	transfection efficiency after 24 hrs, relative to expression after 48 hrs	luciferase expression after 12 hrs, relative to expression after 48 hrs (synchronized Hs68, pRL-SV40, 12 hrs)
GALFLGFLGAAGSTMGAWSQPKKKRKV (carrier peptide) [MPG, bipartite amphipathic peptide derived from fusion peptide domain of HIV-1 gp41 and NLS of SV40 large T antigen]	50%	70%	–
GALFLGFLGAAGSTMGAWSQPKSKRKV (carrier peptide) [MPG^ΔNLS, MPG variant with single mutation of the second lysine residue in the NLS motif to serine]	no transfection was observed	26%	7%

Source: US8354387B2, “Methods and compositions for delivering siRNA into mammalian cells” (Centre National de la Recherche Scientifique, priority 2004, dated 2013)
